From patent US9234848B2, “Compounds having chromophore and photoreactive groups” (CENTRE NATIONAL DE LA RECHERCHE SCIENTIFIQUE (C.N.R.S.), priority 2011, dated 2016)

molecular target: T1, Halobacterium salinarum bacterio-rhodopsin (Halobacterium salinarum, UniProt P02945); test: Photomarking of bacteriorhodopsin (covalent bridging after UV irradiation, fluorescence detected on gel); assay type: biochemical; details: compound in DPC micelles (1:50 molar), protein-compound molar ratio 1:5, 1 hour in darkness at 4° C., 45 s UV irradiation, gel read on Fluorimager with rhodamine filter
T1 construct: purchased SIGMA
T1 sequence (P02945 14-262): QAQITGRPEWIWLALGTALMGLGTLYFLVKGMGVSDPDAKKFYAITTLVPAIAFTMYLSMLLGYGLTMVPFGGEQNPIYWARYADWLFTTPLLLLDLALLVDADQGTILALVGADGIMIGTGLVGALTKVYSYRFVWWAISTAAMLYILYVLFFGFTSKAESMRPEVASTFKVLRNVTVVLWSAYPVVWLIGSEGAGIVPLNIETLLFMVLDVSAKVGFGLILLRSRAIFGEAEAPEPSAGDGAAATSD
Procedure: • Reagents: • Dodecylphosphocholine (DPC) and Halobacterium salinarum bacterio-rhodopsin are from SIGMA. Egg yolk phosphatidylcholine (PC) and cholesterol (chol, 99% pure) are from Avanti Polar Lipids (Alabaster, USA). • Preparation of the Liposomes: • PC, chol and the lipid tool (12a-c) (molar ratio 65:30:5) dissolved in chloroform are mixed in a test tube. After evaporation of the solvent with heat (45 mins at 37° C.), the dry film is hydrated by adding 300 μl of PBS at pH 7.4 in order to obtain a final concentration of lipids of 5 mM. The mixture is stirred and the resulting suspension is heated to 37° C., and then cooled in liquid nitrogen 5 times, and then passed through an extruder equipped with two 100 nm filters (35 passages). • Fluorescence Spectroscopy: • The excitation and emission spectra of the probe compounds according to the invention, within liposomes are recorded at 32° C. on a TECAN Infinite M1000 spectrofluorimeter. The lipid composition of the liposomes is PC:chol:lipid-tool 65:30:5 (molar ratio). The <> control liposomes consist of PC:chol, and their residual fluorescence is subtracted from the measured fluorescence spectra. • Photomarking of Bacteriorhodopsin: • DPC is added to a compound as a solution in chloroform-methanol (2/1, v/v) in the compound/detergent proportion of 1:50 molar. After evaporation in a high vacuum for 2 hours, the dry lipid film is hydrated by adding 50 μL of distilled water and 50 μl of Tris-HCl pH 8.0. The bacterio-rhodopsin resuspended in distilled water, is incubated with the compounds according to invention in detergent micelles, in a protein-compound molar ratio of 1:5. […] After migration, the gel is first analyzed on a Fluorimager Typhoon 8600 equipped with a rhodamine filter, in order to detect fluorescence; the gel is then colored with Coomassie blue for viewing all the protein bands. […]

SMILES	Intensity of the photomarking signal (arbitrary units - AU) [AU]
Cc1ccc(C(=O)c2ccc(CCCCCCCCCCC(=O)O)cc2)cc1 [1b]	10
CCCCCCc1ccc(C(=O)c2ccc(CCCCCC(=O)O)cc2)cc1 [1a, 6-(4-(4-n-hexylbenzoyl)phenyl)hexanoic acid]	5
CCCCCCCCCCc1ccc(C(=O)c2ccc(CC(=O)O)cc2)cc1 [1c, (4-(4-decylbenzoyl)phenyl)ethanoic acid]	1
